Experimental findings from patent US20250339402A1, “EFFECTIVE MEANS TO MODULATE NMDA RECEPTOR-MEDIATED TOXICITY” (FUNDAMENTAL PHARMA GMBH, priority 2022, published 2025) are described below.

One test deals with Primary neurons. In words: Reactive oxygen species (H2O2) induced neuronal death in primary neurons. In kind it is cell-based, mouse. To be noted: 300 μM H2O2 on DIV10, compounds added 30 min before, FIG. 3. On the procedure: Primary mouse hippocampal neurons were prepared as previously described (Bading & Greenberg, Science, 1991; 253: 912-914; Zhang et al, Neuron, 2007, 53: 549-562) and maintained in Neurobasal-A medium supplemented with 2% B27, 5 mM L-Glutamax, and 0.5% Penicillin/Streptomycin until challenged with NMDA on days in vitro (DIV) 10. Glutamate-induced cell death was analyzed in a real-time manner by monitoring nuclear localized mCherry with IncuCyte® S3 Live-Cell Analysis System (Sartorius AG, Germany). Primary neurons plated in 24 well plates were infected with rAAV-hSyn-mCherry on DIV3 and challenged with 1 μM or 20 μM glutamate on DIV10. All compounds were added to the culture 30 min prior to glutamate/NMDA insult. […] Cell deaths were quantified by analyzing the existence of nuclear localized mCheery via the Basic Analyzer with Incucyte® 2021 software, size and average intensity were used as exclusion criteria.
Primary neurons plated in 24 well plates were infected with rAAV-hSyn-mCherry on DIV3 and challenged with 300 μM H2O2 on DIV10. […] Cell deaths were quantified by analyzing the existence of nuclear localized mCherry via the Basic Analyzer with Incucyte® 2021 software, size and average intensity were used as exclusion criteria.

Test [1] has as its system Primary mouse hippocampal neurons. In words: Excitotoxic (glutamate/NMDA-induced) cell death in primary neuronal cultures, protection index. In kind it is cell-based. As to conditions: for pIC50: Mus musculus, Hippocampal neuron, excitotoxic cell death in primary neuronal cultures. On the procedure:
Primary mouse hippocampal neurons were prepared as previously described (Bading & Greenberg, Science, 1991; 253: 912-914; Zhang et al, Neuron, 2007, 53: 549-562) and maintained in Neurobasal-A medium supplemented with 2% B27, 5 mM L-Glutamax, and 0.5% Penicillin/Streptomycin until challenged with NMDA on days in vitro (DIV) 10. Glutamate-induced cell death was analyzed in a real-time manner by monitoring nuclear localized mCherry with IncuCyte® S3 Live-Cell Analysis System (Sartorius AG, Germany). Primary neurons plated in 24 well plates were infected with rAAV-hSyn-mCherry on DIV3 and challenged with 1 μM or 20 μM glutamate on DIV10. All compounds were added to the culture 30 min prior to glutamate/NMDA insult. Images were acquired following the glutamate application for 24 h with a 2 h interval, where 9-16 images were obtained via a 20×objective for each condition at each time point. Cell deaths were quantified by analyzing the existence of nuclear localized mCheery via the Basic Analyzer with Incucyte® 2021 software, size and average intensity were used as exclusion criteria.
In order to evaluate the protective effects of various compounds, a quantification method was developed to determine each compound's protection index. The protection index (from 0.0 to 10.0) was calculated by the area above the curve (AAC) during a 24 h excitotoxic stimuli, where the cell survival was normalized to the 0 h (FIG. 2), following the equation: […]
Where AAC represents for each compound, AACbasal represents for the basal condition without excitotoxic insult, AACVeh represents for the vehicle control with excitotoxic insult. Based on the equation, vehicle (DMSO) has a protection index at 0.0 and compound P401 of WO 2020/079244 has a protection index at 6.0 (at 10 μM).
The inventors also performed experiments with Group A compounds at lower concentration in a 3-fold dilution matter ([…]: 3.0, 1.0, 0.3, 0.1, 0.03) and were able to achieve a similar protection effect as 10 μM compound P401, but at a lower concentration.

Setting [2] is: first subset, protection index from area above curve over 24 h glutamate/NMDA insult, compounds added 30 min before, 10 μM, Group A also at lower concentrations.
[3] abbreviates: third subset, A++++ or above correlates with IC50, A++ and A+++ as defined in the source.
[4] abbreviates: second subset, protection index from area above curve over 24 h glutamate/NMDA insult, compounds added 30 min before, 10 μM, Group A also at lower concentrations.

pIC50: −log10 of the molar value. “Also recorded” adds a separate entry of the source. Where a name gives a salt, the structure may show the parent alone.

By pIC50 is commonly meant −log10 of the IC50, conventionally taken in molar units. Read a low pIC50 as a large IC50.

In the case of `CC(c1cccc(Cl)c1F)N(CCN)C1CC1` (stereo not drawn) [Compound 220, N1-(1-(3-chloro-2-fluorophenyl)ethyl)-N1-cyclopropylethane-1,2-diamine hydrochloride], the “protection against H2O2 insult (cell survival)” value with Primary neurons (hydrochloride) is listed as “better protection against H2O2 insult compared to P401 at 10 μM; also recorded: even better protection than the prior art compound P401”. Also, the “Biological Activity Rating” value in test [1] (second subset, protection index from area above curve over 24 h glutamate/NMDA insult, compounds added 30 min before, 10 μM, Group A also at lower concentrations, hydrochloride) is “A++++ (With a protection index between 5.0 to 7.0, provides a comparable protection to compound P401 (10 μM) at 0.1 μM.)”. In the case of `CCN(CCN)Cc1cccc(C#N)c1F` [Compound 175, 3-(((2-aminoethyl)(ethyl)amino)methyl)-2-fluorobenzonitrile TFA salt], in test [1] (setting [2]), the “Biological Activity Rating” value is given as “A+ (With a protection index between 5.0 to 7.0, provides a comparable protection to compound P401 (10 μM) at 3.0 μM.)”.

`CCC(c1cccc(Cl)c1F)N(CCN)C1CC(F)(F)C1` (stereo not drawn) [Compound 248] had a pIC50 in test [1] (third subset) of 6.92. Take `C=CCC(=O)N(CCN)Cc1cccc(Cl)c1` [Compound 137, N-(2-aminoethyl)-N-[(3-chlorophenyl)methyl]but-3-enamide hydrochloride]: the “Biological Activity Rating” value in test [1] (setting [2]) was “A (With a protection index over 7.0, provides a significantly better protection over compound P401 (10 μM) at 10 μM.)”.

With `NCCN(Cc1cccc(Br)c1F)C1CC1` [Compound 219B], the pIC50 in test [1] (third subset) is 5.84. For the same compound, the “Biological Activity Rating” value in test [1] (setting [3]) is recorded as “A++”.

As for `CCN(CCN)Cc1cc(Cl)ccc1F` [Compound 95], the “Biological Activity Rating” value in test [1] (setting [2]) is “B (With a protection index between 5.0 to 7.0, provides a comparable protection to compound P401 (10 μM) at 10 μM.)”. For `CSCCN(CCN)C(C)c1cccc(Cl)c1F` (stereo not drawn) [Compound 169, N1-(2-(methylthio)ethyl)-N1-(1-(3-chloro-2-fluorophenyl)ethyl) ethane-1,2-diamine], in test [1] (setting [4]), the “Biological Activity Rating” value is listed as “B (With a protection index between 5.0 to 7.0, provides a comparable protection to compound P401 (10 μM) at 10 μM.)”.

With `CCC(c1cccc(Cl)c1F)N(CCN)C1CC1` (stereo not drawn) [Compound 224, N1-(1-(3-chloro-2-fluorophenyl)propyl)-N1-cyclopropylethane-1,2-diamine hydrochloride], the pIC50 in test [1] (third subset) was 7.59. `CC(C)C(c1cccc(Cl)c1F)N(CCN)CC(F)F` (stereo not drawn) [Compound 282, N′-[1-(3-chloro-2-fluoro-phenyl)-2-methyl-propyl]-N′-(2,2-difluoroethyl)ethane-1,2-diamine TFA salt] showed a pIC50 in test [1] (third subset) of 7.29. `NCCN(C1CC1)C(c1cccc(Cl)c1F)C1CC1` (stereo not drawn) [Compound 190]: the pIC50 in test [1] (third subset) is 6.96.

In turn, `NCCN(C1CC1)C(c1cccc(Cl)c1F)C1CCCC1` (stereo not drawn) [Compound 268] gave a pIC50 in test [1] (third subset) of 6.55.

`C=CCC(c1cccc(Cl)c1F)N(CCN)C1CC1` (stereo not drawn) [Compound 271A, N′-[1-(3-chloro-2-fluoro-phenyl)but-3-enyl]-N′-cyclopropyl-ethane-1,2-diamine TFA salt] had a pIC50 in test [1] (third subset) of 8.15.

As to `CC(c1cccc(Br)c1F)N(CCN)C1CCC1` (stereo not drawn) [Compound 227B], the pIC50 in test [1] (third subset) was 6.52. The “Biological Activity Rating” value in test [1] (setting [3]) was “A+++”. `CC(c1c(F)cccc1Cl)N(CCN)C1CC1` (stereo not drawn) [Compound 186]: the pIC50 in test [1] (third subset) is 6.10. In addition, the “Biological Activity Rating” value in test [1] (setting [3]) is “A+++”. As for `CC(c1cc(Cl)ccc1Cl)N(CCN)C1CC1` (stereo not drawn) [Compound 185, N1-(cyclopropyl)-N1-(1-(2,5-dichlorophenyl)ethyl)ethane-1,2-diamine hydrochloride], the “Biological Activity Rating” value in test [1] (setting [4]) is reported as “A++ (With a protection index between 5.0 to 7.0, provides a comparable protection to compound P401 (10 μM) at 1.0 μM.)”. With `CCN(CCN)C(C)c1cccc(Cl)c1` (stereo not drawn) [Compound 109], the “Biological Activity Rating” value in test [1] (setting [4]) is given as “A (With a protection index over 7.0, provides a significantly better protection over compound P401 (10 μM) at 10 μM.)”. In test [1] (third subset), `CCCN(CCN)C(CC)c1cccc(Cl)c1F` (stereo not drawn) [Compound 262, N1-(1-(3-chloro-2-fluorophenyl)propyl)-N1-propylethane-1,2-diamine hydrochloride] gave a pIC50 of 8.00.

Turning to `CCN(CCN)[C@H](C)c1cccc(Cl)c1` [Compound 176, (R)—N1-(1-(3-chlorophenyl)ethyl)-N1-ethylethane-1,2-diamine dihydrochloride], the “Biological Activity Rating” value in test [1] (setting [4]) is listed as “A (With a protection index over 7.0, provides a significantly better protection over compound P401 (10 μM) at 10 μM.)”.

On to `C=CCN(CCN)Cc1cccc(Cl)c1F` [Compound 160], for which the “Biological Activity Rating” value in test [1] (setting [2]) was “A (With a protection index over 7.0, provides a significantly better protection over compound P401 (10 μM) at 10 μM.)”. For the compound `C=CCN(CCN)Cc1cccc(Cl)c1` [Compound 136], in test [1] (setting [2]), the “Biological Activity Rating” value is “A (With a protection index over 7.0, provides a significantly better protection over compound P401 (10 μM) at 10 μM.)”. In turn, `CC(C)(F)C(c1cccc(C#N)c1F)N(CCN)C1CC1` (stereo not drawn) [Compound 287, 3-[1-[2-aminoethyl(cyclopropyl)amino]-2-fluoro-2-methyl-propyl]-2-fluoro-benzonitrile TFA salt] had a pIC50 in test [1] (third subset) of 8.52.

Take `CC(c1cccc(Cl)c1F)N(CCN)C12CC(C1)C2` (stereo not drawn) [Compound 182, N1-(bicyclo[1.1.1]pentan-1-yl)-N1-(1-(3-chloro-2-fluorophenyl)ethyl)ethane-1,2-diamine hydrochloride]: the “Biological Activity Rating” value in test [1] (setting [4]) is given as “A+ (With a protection index between 5.0 to 7.0, provides a comparable protection to compound P401 (10 μM) at 3.0 μM.)”. `NCCN(C1CC1)C(CC(F)(F)F)c1cccc(Cl)c1F` (stereo not drawn) [Compound 247, N^1-(1-(3-chloro-2-fluorophenyl)-3,3,3-trifluoropropyl)-N^1-cyclopropylethane-1,2-diamine hydrochloride]: the pIC50 in test [1] (third subset) was 8.00. In test [1] (third subset), `CC(c1scc(C#N)c1F)N(CCN)C1CC1` (stereo not drawn) [Compound 297, 5-[1-[2-aminoethyl(cyclopropyl)amino]ethyl]-4-fluoro-thiophene-3-carbonitrile TFA salt] had a pIC50 of 6.01. Besides, in test [1] (setting [3]), the “Biological Activity Rating” value is “A+++”.

In test [1] (third subset), `CC(c1c(Cl)ccc(Cl)c1F)N(CCN)C1CC1` (stereo not drawn) [Compound 242] showed a pIC50 of 6.52. For the same compound, in test [1] (setting [3]), the “Biological Activity Rating” value is reported as “A+++”. For `CC(c1cc(Cl)ccc1F)N(CCN)C1CC1` (stereo not drawn) [Compound 243] the same measures were 6.52 and “A+++”. `CCC(c1c(F)ccc(C#N)c1F)N(CCN)C1CC1` (stereo not drawn) [Compound 259] gave a pIC50 in test [1] (third subset) of 7.49. Turning to `C#Cc1cccc(C(C)N(CCN)C2CC2)c1F` (stereo not drawn) [Compound 295, N′-cyclopropyl-N′-[1-(3-ethynyl-2-fluoro-phenyl)ethyl]ethane-1,2-diamine TFA salt], the pIC50 in test [1] (third subset) was 7.49. As to `NCCN(Cc1cccc(Cl)c1F)CC(F)(F)F` [Compound 119, N1-(3-chloro-2-fluorobenzyl)-N1-(2,2,2-trifluoroethyl)ethane-1,2-diamine], the “Biological Activity Rating” value in test [1] (setting [2]) is “A (With a protection index over 7.0, provides a significantly better protection over compound P401 (10 μM) at 10 μM.)”. As for `NCCN(Cc1cccc(Cl)c1F)C1CCC1` [Compound 159, N1-(3-chloro-2-fluorobenzyl)-N1-cyclobutylethane-1,2-diamine dihydrochloride], the “Biological Activity Rating” value in test [1] (setting [2]) was “A++ (With a protection index between 5.0 to 7.0, provides a comparable protection to compound P401 (10 μM) at 1.0 μM.)”. On to `CCN(CCN)Cc1cccc(Cl)c1` [Compound P401, (2-aminoethyl)[(3-chlorophenyl)methyl]ethylamine, reference compound], for which, in the test with Primary neurons, the “protection against H2O2 insult (cell survival)” value is “better protection against H2O2 insult compared to FDA-approved ALS drug Riluzole and Edaravone; also recorded: better protection against H2O2 insult than the FDA-approved ALS drug Riluzole and Edaravone”. In test [1] (10 μM, primary cultured neurons, FIG. 2), the “protection (cell survival after glutamate/NMDA treatment)” value is on record as ~60%. Moreover, the protection index in test [1] (at 10 μM, scale 0.0 to 10.0, vehicle (DMSO) = 0.0) is recorded as 6.0. In test [1] (third subset), `CC(C)C(c1cccc(Cl)c1F)N(CCN)C1CC1` (stereo not drawn) [Compound 225] showed a pIC50 of 8.30. Take `NCCN(Cc1cccc(Cl)c1)C1CCCCC1` [Compound 124]: in test [1] (setting [2]), the “Biological Activity Rating” value is on record as “B (With a protection index between 5.0 to 7.0, provides a comparable protection to compound P401 (10 μM) at 10 μM.)”.
